Experimental findings from patent US20090325959A1 (priority 2008, published 2009) are described below.

The term Ki denotes a dissociation constant, usually derived from enzyme kinetics or from competition with a known ligand.

Structures are written as SMILES. Read-outs that look alike come from different tables or passages of the source.

Type in all cases: biochemical
The target of one experiment is T1, p70S6K human enzyme (Homo sapiens, UniProt P23443, T412E).
T1 construct: purchased Upstate Chemicon 14-486
Nature of the experiment: p70S6K inhibition assay (IMAP FP).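 Also: kinase reaction run at room temperature, phosphorylated substrate captured on IMAP beads and read as fluorescence polarization in mP, IC50 then converted to Ki.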 The note with it: 30 μM ATP; Ki=IC50/(1+([ATP Challenge]/EC50 ATP)); read-out: p70S6K Ki, Avg.

The next experiment addresses T2, ROCK2 (Homo sapiens, UniProt O75116).
T2 construct: purchased Upstate/Chemicon 14-451
Description: Rho kinase inhibition assay (IMAP fluorescence polarization), ROCK2.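 Also: kinase reaction started with 10 µM ATP and run 60 min at room temperature, then phosphorylated substrate captured on IMAP beads for 30 min and fluorescence polarization read in mP.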

The target of another experiment is T3, Akt3 human enzyme (Homo sapiens, UniProt Q9Y243).
T3 construct: purchased Upstate Chemicon 14-502
Description: Akt3 inhibition assay (IMAP FP).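 Also: kinase reaction run 60 min at room temperature after 30 µM ATP start, phosphorylated substrate captured on IMAP beads and read as fluorescence polarization (mP).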 The conditions noted are these: 30 μM ATP; Ki=IC50/(1+([ATP Challenge]/EC50 ATP)); read-out: Akt3 Ki, Avg.

The next experiment deals with T4, ROCK1 (Homo sapiens, UniProt Q13464).
T4 construct: purchased Upstate/Chemicon 14-601
Nature of the experiment: Rho kinase inhibition assay (IMAP fluorescence polarization), ROCK1. (In general: In fluorescence polarisation assays a small probe gives low polarisation when free and higher when bound to something large.)

Setting [1] is: 10 μM ATP, read-out: ROCK2 Ki, Avg.

T2 sequence (O75116 11-552 limits assumed): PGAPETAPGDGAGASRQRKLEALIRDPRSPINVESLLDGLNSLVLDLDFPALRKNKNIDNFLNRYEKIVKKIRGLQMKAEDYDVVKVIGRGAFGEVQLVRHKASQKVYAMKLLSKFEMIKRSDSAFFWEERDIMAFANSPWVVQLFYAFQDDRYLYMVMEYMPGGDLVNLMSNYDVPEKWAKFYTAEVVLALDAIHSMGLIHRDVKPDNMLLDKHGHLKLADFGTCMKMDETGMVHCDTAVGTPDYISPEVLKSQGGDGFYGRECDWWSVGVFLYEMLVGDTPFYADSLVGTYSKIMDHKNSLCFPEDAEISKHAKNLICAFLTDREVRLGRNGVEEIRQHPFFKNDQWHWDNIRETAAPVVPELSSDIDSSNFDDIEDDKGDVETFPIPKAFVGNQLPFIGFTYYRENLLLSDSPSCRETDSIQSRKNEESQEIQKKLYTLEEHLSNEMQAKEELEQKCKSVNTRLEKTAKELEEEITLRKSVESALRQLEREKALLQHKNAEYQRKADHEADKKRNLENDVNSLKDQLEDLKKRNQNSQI
T4 sequence (Q13464 17-535 limits assumed): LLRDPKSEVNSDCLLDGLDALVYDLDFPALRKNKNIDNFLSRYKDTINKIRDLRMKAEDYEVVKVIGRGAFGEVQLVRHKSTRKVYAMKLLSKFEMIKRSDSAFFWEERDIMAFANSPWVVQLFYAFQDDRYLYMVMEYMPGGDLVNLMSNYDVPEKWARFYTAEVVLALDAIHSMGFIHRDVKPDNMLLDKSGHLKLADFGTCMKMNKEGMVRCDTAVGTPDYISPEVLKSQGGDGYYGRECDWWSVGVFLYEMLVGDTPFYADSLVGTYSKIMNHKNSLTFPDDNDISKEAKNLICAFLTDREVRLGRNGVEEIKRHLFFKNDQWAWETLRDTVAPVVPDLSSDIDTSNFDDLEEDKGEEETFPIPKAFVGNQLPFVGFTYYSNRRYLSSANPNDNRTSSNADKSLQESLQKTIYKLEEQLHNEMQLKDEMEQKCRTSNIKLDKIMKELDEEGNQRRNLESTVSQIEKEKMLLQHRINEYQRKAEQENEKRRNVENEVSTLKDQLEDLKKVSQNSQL
T3 sequence (Q9Y243 whole entry): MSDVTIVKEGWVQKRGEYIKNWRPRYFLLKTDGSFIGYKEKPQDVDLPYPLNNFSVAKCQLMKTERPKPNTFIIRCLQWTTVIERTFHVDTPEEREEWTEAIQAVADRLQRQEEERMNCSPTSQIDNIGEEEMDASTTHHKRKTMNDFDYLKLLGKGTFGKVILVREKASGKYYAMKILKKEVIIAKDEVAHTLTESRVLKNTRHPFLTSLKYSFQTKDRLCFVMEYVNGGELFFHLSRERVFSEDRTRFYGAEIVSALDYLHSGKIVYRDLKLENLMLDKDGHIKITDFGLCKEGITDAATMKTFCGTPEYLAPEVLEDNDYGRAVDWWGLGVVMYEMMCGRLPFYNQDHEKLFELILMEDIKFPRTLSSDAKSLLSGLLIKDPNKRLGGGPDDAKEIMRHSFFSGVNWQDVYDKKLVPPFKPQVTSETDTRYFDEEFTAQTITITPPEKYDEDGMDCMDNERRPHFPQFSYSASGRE
T1 sequence (P23443 1-421 T412E limits assumed): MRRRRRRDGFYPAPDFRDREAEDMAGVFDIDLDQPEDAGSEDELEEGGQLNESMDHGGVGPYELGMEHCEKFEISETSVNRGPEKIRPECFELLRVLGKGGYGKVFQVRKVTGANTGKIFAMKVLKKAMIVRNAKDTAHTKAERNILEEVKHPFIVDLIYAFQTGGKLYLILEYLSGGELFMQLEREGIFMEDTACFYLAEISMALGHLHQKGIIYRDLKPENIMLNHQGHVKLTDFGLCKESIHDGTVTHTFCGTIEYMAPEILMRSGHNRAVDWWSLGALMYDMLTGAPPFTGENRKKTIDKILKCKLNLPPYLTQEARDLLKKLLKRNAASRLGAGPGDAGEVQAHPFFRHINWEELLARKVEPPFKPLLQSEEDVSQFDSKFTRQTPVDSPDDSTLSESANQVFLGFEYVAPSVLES
Description for ROCK1: (§1) Following the pre-incubation, 10 μM ATP was added to initiate the reaction. After 60 minutes at room temperature, Molecular Devices IMAP™ binding solution was added to bind phosphorylated substrate. After 30 minutes of incubation in the presence of the IMAP™ beads, the fluorescence polarization was read and the ratio was reported as mP. IC50 values for compounds and EC50 values for ATP were calculated using the Prism software from Graphpad.
Description for ROCK2: as §1

As to `FC(F)(F)c1ccc(CN2CCC[C@@H](Nc3ccc4[nH]ncc4c3)C2)cc1` [Compound 1.178, (R)-N-(1-(4-(trifluoromethyl)benzyl)piperidin-3-yl)-1H-indazol-5-amine], the inhibition constant (Ki) was found to be 1.12 µM on p70S6K human enzyme; 0.0249 µM on ROCK2 (setting [1]); 0.711 µM on Akt3 human enzyme; 0.138 µM at ROCK1 (Avg, 10 μM ATP).
With `Fc1ccc(CN2CCC[C@H](Nc3ccc4[nH]ncc4c3)C2)cc1F` [Compound 1.072, (S)-N-(1-(3,4-difluorobenzyl)piperidin-3-yl)-1H-indazol-5-amine], the Ki is 1.13 µM on p70S6K human enzyme; 0.0056 µM at ROCK2 (setting [1]); 4.75 µM at Akt3 human enzyme; 0.0337 µM at ROCK1 (Avg, 10 μM ATP).
For `Brc1cccc(CN2CCC[C@H](Nc3ccc4[nH]ncc4c3)C2)c1` [Compound 1.183, (S)-N-(1-(3-bromobenzyl)piperidin-3-yl)-1H-indazol-5-amine], in that order: 2.48 µM, 0.0168 µM, 9.01 µM and 0.165 µM.
Turning to `C=Cc1ccc(CN2CCC[C@H](Nc3ccc4[nH]ncc4c3)C2)cc1` [Compound 1.229, (S)-N-(1-(4-vinylbenzyl)piperidin-3-yl)-1H-indazol-5-amine], the Ki came out at 3.13 µM on p70S6K human enzyme; 0.0184 µM at ROCK2 (setting [1]); 24.6 µM on Akt3 human enzyme; 0.121 µM at ROCK1 (Avg, 10 μM ATP).
Consider `c1ccc(CN2CCC[C@@H](Nc3ccc4[nH]ncc4c3)C2)cc1` [Compound 1.110, (R)-N-(1-benzylpiperidin-3-yl)-1H-indazol-5-amine], for which the Ki turned out to be 1.3 µM at p70S6K human enzyme; 0.0112 µM at ROCK2 (setting [1]); 0.463 µM at Akt3 human enzyme; 0.059 µM at ROCK1 (Avg, 10 μM ATP).
With `C[C@@H](O)COc1cccc(CN2CCC[C@H](Nc3ccc4[nH]ncc4c3)C2)c1` [Compound 1.118, (R)-1-(3-(((S)-3-(1H-indazol-5-ylamino)piperidin-1-yl)methyl)phenoxy)propan-2-ol], the inhibitory constant (Ki) was 0.0817 µM on ROCK2 (setting [1]) and 0.462 µM on ROCK1 (Avg, 10 μM ATP).
Regarding `CSc1nccc(CN2CC[C@@H](Nc3cccc4cnccc34)C2)n1` [Compound 2.082, (R)-N-(1-((2-(methylthio)pyrimidin-4-yl)methyl)pyrrolidin-3-yl)isoquinolin-5-amine], the inhibition constant Ki on ROCK2 (setting [1]) came to 0.009 µM; at ROCK2 (average Ki, read-out: ROCK2 Ki), 0.009 µM; at ROCK1 (Avg, 10 μM ATP) it was 0.132 µM; at ROCK1 (average Ki) it was 0.132 µM.
For `CS(=O)(=O)c1cccc(CN2CCC[C@H](Nc3ccc4[nH]ncc4c3)C2)c1` [Compound 1.182, (S)-N-(1-(3-(methylsulfonyl)benzyl)piperidin-3-yl)-1H-indazol-5-amine], the Ki came to 0.0306 µM on ROCK2 (setting [1]) and 0.408 µM on ROCK1 (Avg, 10 μM ATP).
`Cc1ccc(CN2CC[C@@H](Nc3cccc4cnccc34)C2)cc1OCC(=O)OC(C)(C)C` [Compound 2.071, (R)-tert-butyl 2-(5-((3-(isoquinolin-5-ylamino)pyrrolidin-1-yl)methyl)-2-methylphenoxy)acetate]: the Ki on ROCK2 (setting [1]) was determined as 0.0119 µM; at ROCK1 (Avg, 10 μM ATP), 0.0212 µM.
On the same counts, the results for `CC(CN1CCC[C@@H](Nc2ccc3[nH]ncc3c2)C1)c1ccccc1` (stereo partly drawn) [Compound 1.251, N-((3R)-1-(2-phenylpropyl)piperidin-3-yl)-1H-indazol-5-amine] are 0.0492 µM and 0.207 µM.
For `OCCn1ccc2cc(CN3CCC[C@H](Nc4ccc5[nH]ncc5c4)C3)ccc21` [Compound 1.269, (S)-2-(5-((3-(1H-indazol-5-ylamino)piperidin-1-yl)methyl)-1H-indol-1-yl)ethanol], in that order: 0.0228 µM and 0.239 µM.
For the molecule `CS(=O)(=O)N1CCCc2cc(CN3CC[C@@H](Nc4cccc5cnccc45)C3)ccc21` [Compound 2.070, (R)-N-(1-((1-(methylsulfonyl)-1,2,3,4-tetrahydroquinolin-6-yl)methyl)pyrrolidin-3-yl)isoquinolin-5-amine], the Ki on ROCK2 (setting [1]) is 0.0484 µM; at ROCK1 (Avg, 10 μM ATP), 0.286 µM.
For `NS(=O)(=O)c1ccc2nc(CN3CC[C@@H](Nc4cccc5cnccc45)C3)[nH]c2c1` [Compound 2.087, (R)-2-((3-(isoquinolin-5-ylamino)pyrrolidin-1-yl)methyl)-1H-benzo[d]imidazole-6-sulfonamide], the Ki on ROCK2 (setting [1]) turned out to be 0.0593 µM; on ROCK1 (Avg, 10 μM ATP), 0.896 µM.
For `Cc1ccc(CN2CC[C@@H](Nc3ccc4[nH]ncc4c3)C2)cc1` [Compound 1.242, (R)-N-(1-(4-methylbenzyl)pyrrolidin-3-yl)-1H-indazol-5-amine], the Ki at ROCK2 (setting [1]) turned out to be 0.0175 µM; at ROCK1 (Avg, 10 μM ATP), 0.0714 µM.
Consider `O=C(COc1cccc(CN2CC[C@@H](Nc3cccc4cnccc34)C2)c1)N1CCOCC1` [Compound 2.043, (R)-2-(3-((3-(isoquinolin-5-ylamino)pyrrolidin-1-yl)methyl)phenoxy)-1-morpholinoethanone], for which the Ki turned out to be 0.0215 µM on ROCK2 (setting [1]) and 0.0494 µM at ROCK1 (Avg, 10 μM ATP).
Regarding `FC(F)(F)c1cccc(CN2CCC[C@H](Nc3ccc4[nH]ncc4c3)C2)c1` [Compound 1.169, (S)-N-(1-(3-(trifluoromethyl)benzyl)piperidin-3-yl)-1H-indazol-5-amine], the Ki at ROCK2 (setting [1]) stood at 0.0338 µM; at ROCK1 (Avg, 10 μM ATP), 0.256 µM.
Regarding `Cc1c(CN2CCC[C@H](Nc3ccc4[nH]ncc4c3)C2)cccc1NS(C)(=O)=O` [Compound 1.274, (S)-N-(3-((3-(1H-indazol-5-ylamino)piperidin-1-yl)methyl)-2-methylphenyl)methanesulfonamide], the Ki on ROCK2 (setting [1]) is 0.0107 µM; at ROCK1 (Avg, 10 μM ATP) it was 0.223 µM.
For `OCCCOc1cccc(CN2CCC[C@@H](Nc3ccc4[nH]ncc4c3)C2)c1` [Compound 1.231, (R)-3-(3-((3-(1H-indazol-5-ylamino)piperidin-1-yl)methyl)phenoxy)propan-1-ol], in that order: 0.0603 µM and 0.305 µM.
Consider `c1cc(CN2CC[C@@H](Nc3cccc4cnccc34)C2)cc(C2CC2)c1` [Compound 2.020, (R)-N-(1-(3-cyclopropylbenzyl)pyrrolidin-3-yl)isoquinolin-5-amine], for which the inhibitory constant (Ki) at ROCK2 (setting [1]) turned out to be 0.0365 µM; on ROCK1 (Avg, 10 μM ATP), 0.101 µM.
On the same counts, the results for `CSc1ccc(CN2CCC[C@H](Nc3cccc4cnccc34)C2)cc1` [Compound 2.051, (S)-N-(1-(4-(methylthio)benzyl)piperidin-3-yl)isoquinolin-5-amine] are 1.18 µM and 1.44 µM.
On to `CCOC(=O)COc1cccc(CN2CCC[C@@H](Nc3ccc4[nH]ncc4c3)C2)c1` [Compound 1.147, (R)-ethyl 2-(3-((3-(1H-indazol-5-ylamino)piperidin-1-yl)methyl)phenoxy)acetate], for which the inhibition constant Ki at ROCK2 (setting [1]) is 0.0457 µM; on ROCK1 (Avg, 10 μM ATP) it was 0.0583 µM.
On the same counts, the results for `c1cc(N[C@@H]2CCN(Cc3ccc4c(c3)OCCO4)C2)c2ccncc2c1` [Compound 2.056, (R)-N-(1-((2,3-dihydrobenzo[b][1,4]dioxin-6-yl)methyl)pyrrolidin-3-yl)isoquinolin-5-amine] are 0.0487 µM and 0.107 µM.
Take `CS(=O)(=O)c1cccc(CN2CCC[C@@H](Nc3ccc4[nH]ncc4c3)C2)c1` [Compound 1.160, (R)-N-(1-(3-(methylsulfonyl)benzyl)piperidin-3-yl)-1H-indazol-5-amine]: the Ki at ROCK2 (setting [1]) was 0.0494 µM; on ROCK1 (Avg, 10 μM ATP), 0.218 µM.
Consider `CS(=O)(=O)c1ccc(CN2CCC[C@H](Nc3ccc4[nH]ncc4c3)C2)cc1` [Compound 1.181, (S)-N-(1-(4-(methylsulfonyl)benzyl)piperidin-3-yl)-1H-indazol-5-amine], for which the Ki is 0.0328 µM at ROCK2 (setting [1]) and 0.568 µM at ROCK1 (Avg, 10 μM ATP).
Regarding `Cc1ccc(CN2CC[C@@H](Nc3cccc4cnccc34)C2)cc1OCC(N)=O` [Compound 2.099, (R)-2-(5-((3-(isoquinolin-5-ylamino)pyrrolidin-1-yl)methyl)-2-methylphenoxy)acetamide], the Ki at ROCK2 (setting [1]) was 0.0038 µM; at ROCK2 (average Ki, read-out: ROCK2 Ki), 0.0038 µM; on ROCK1 (Avg, 10 μM ATP) it was 0.015 µM; on ROCK1 (average Ki), 0.015 µM.
As to `CCOC(=O)c1ccc(CN2CCC[C@H](Nc3ccc4[nH]ncc4c3)C2)cc1` [Compound 1.216, (S)-ethyl 4-((3-(1H-indazol-5-ylamino)piperidin-1-yl)methyl)benzoate], the Ki on ROCK2 (setting [1]) is 0.403 µM; at ROCK1 (Avg, 10 μM ATP), 1.89 µM.
Take `Cc1c(CN2CC[C@@H](Nc3cccc4cnccc34)C2)cccc1NS(C)(=O)=O` [Compound 2.078, (R)-N-(3-((3-(isoquinolin-5-ylamino)pyrrolidin-1-yl)methyl)-2-methylphenyl)methanesulfonamide]: the inhibition constant (Ki) on ROCK2 (setting [1]) is 0.0026 µM; at ROCK2 (average Ki, read-out: ROCK2 Ki), 0.0026 µM; at ROCK1 (Avg, 10 μM ATP), 0.0183 µM; on ROCK1 (average Ki), 0.0183 µM.
As for `Cc1ccc(CN2CC[C@@H](Nc3cccc4c(=O)[nH]ccc34)C2)cc1OCCO` [Compound 2.093, (R)-5-(1-(3-(2-hydroxyethoxy)-4-methylbenzyl)pyrrolidin-3-ylamino)isoquinolin-1(2H)-one], the inhibition constant Ki was determined as 0.128 µM on ROCK2 (setting [1]) and 0.576 µM at ROCK1 (Avg, 10 μM ATP).
Take `Clc1ccc(CN2CCC[C@@H](Nc3ccc4[nH]ncc4c3)C2)cc1Cl` [Compound 1.144, (R)-N-(1-(3,4-dichlorobenzyl)piperidin-3-yl)-1H-indazol-5-amine]: the Ki on ROCK2 (setting [1]) worked out at 0.0195 µM; at ROCK1 (Avg, 10 μM ATP) it was 0.0976 µM.
On to `CC1(C)OC[C@H](COc2cccc(CN3CCC[C@H](Nc4ccc5[nH]ncc5c4)C3)c2)O1` [Compound 1.214, N-((S)-1-(3-(((S)-2,2-dimethyl-1,3-dioxolan-4-yl)methoxy)benzyl)piperidin-3-yl)-1H-indazol-5-amine], for which the Ki at ROCK2 (setting [1]) came to 0.143 µM; on ROCK1 (Avg, 10 μM ATP) it was 0.546 µM.
On to `c1csc(CN2CC[C@@H](Nc3cccc4cnccc34)C2)c1` [Compound 2.090, (R)-N-(1-(thiophen-2-ylmethyl)pyrrolidin-3-yl)isoquinolin-5-amine], for which the inhibition constant Ki on ROCK2 (setting [1]) was found to be 0.0195 µM; at ROCK1 (Avg, 10 μM ATP), 0.0533 µM.
